According to PubChem BioAssay (NCI):
Values joined by “and” are separate entries in the source; they are usually repeats but may differ in a detail not shown here. Equal values may be shown once.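 Test compounds were applied to cells in 96-well plates for 48 hours at 5 doses. GI50 is the concentration that inhibits growth by half. TGI marks complete inhibition of growth.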

Legend:
Assay in all cases: DTP human tumour cell line panel, 48 h
HT29 colon = test system: HT29 colon
MOLT-4 leukemia = test system: MOLT-4 leukemia
OVCAR-3 ovarian = test system: OVCAR-3 ovarian
SK-MEL-5 melanoma = test system: SK-MEL-5 melanoma
SK-OV-3 ovarian = test system: SK-OV-3 ovarian
CCRF-CEM leukemia = test system: CCRF-CEM leukemia
CAKI-1 renal = test system: CAKI-1 renal
KM12 colon = test system: KM12 colon
SR leukemia = test system: SR leukemia
HCT-116 colon = test system: HCT-116 colon

| SMILES | TGI (HT29 colon) | TGI (MOLT-4 leukemia) | TGI (OVCAR-3 ovarian) | TGI (SK-MEL-5 melanoma) | TGI (SK-OV-3 ovarian) | TGI (CCRF-CEM leukemia) | TGI (CAKI-1 renal) | TGI (KM12 colon) | TGI (SR leukemia) | TGI (HCT-116 colon) | GI50 (HT29 colon) | GI50 (MOLT-4 leukemia) | GI50 (OVCAR-3 ovarian) | GI50 (SK-MEL-5 melanoma) | GI50 (SK-OV-3 ovarian) | GI50 (CCRF-CEM leukemia) | GI50 (CAKI-1 renal) | GI50 (KM12 colon) | GI50 (SR leukemia) | GI50 (HCT-116 colon) |
| --- | --- | --- | --- | --- | --- | --- | --- | --- | --- | --- | --- | --- | --- | --- | --- | --- | --- | --- | --- | --- |
| N#C/C(=C/c1cccnc1)C(=O)c1ccccc1 | > 100 µM | > 100 µM | > 100 µM | > 100 µM | > 100 µM | > 100 µM | > 100 µM | > 100 µM | > 100 µM | > 100 µM |  |  |  |  |  |  |  |  |  |  |
| N#C/C(=C/C=C(\Cl)c1ccc(Cl)cc1)C(N)=O | > 36.5 µM | > 39.8 µM | 1.76 µM | 15.1 µM | 42.3 µM | > 100 µM | 2.99 µM | 4.69 µM | 20.4 µM | 1.49 µM | 3.38 µM | 0.66 µM | 0.269 µM | 4.56 µM | 14.9 µM | 2.81 µM | 1.29 µM | 2.1 µM | 2.26 µM | 0.402 µM |
| Nc1ccc(C#Cc2cncnc2Nc2ccc(OCc3cccc(F)c3)c(Cl)c2)cc1 | > 25 µM | > 25 µM | > 25 µM | > 25 µM | > 25 µM | > 25 µM | > 25 µM | > 25 µM | > 25 µM | > 25 µM | 10.1 µM | 19.5 µM | 8.87 µM | > 15.8 µM | 8.88 µM | 5.72 µM | 5.87 µM | 10.2 µM | > 18 µM | 10.6 µM |
| CCCCn1c2c(c3ccccc3c1=O)C(=O)c1ccccc1-2 | > 100 µM |  | > 100 µM | > 100 µM | > 100 µM | > 100 µM | > 100 µM | > 100 µM | > 100 µM | > 100 µM |  |  |  |  |  |  |  |  |  |  |
| N#Cc1c[nH]n2ccnc12 | > 100 µM | > 100 µM | > 100 µM | > 100 µM | > 100 µM | > 100 µM | > 100 µM | > 100 µM | > 100 µM | > 100 µM |  |  |  |  |  |  |  |  |  |  |
| O=C1C=CC(=O)C1(Br)Br | 32.7 µM | > 100 µM | 31.4 µM | 34 µM | 43.2 µM | 26.6 µM | 11.4 µM | 29.4 µM | 29.5 µM | 20.9 µM |  |  |  |  |  |  |  |  |  |  |
| O=C1/C(=C/c2ccccc2)SC(=Nc2ccccc2)N1Nc1ccccc1 | > 100 µM | > 100 µM | 91.2 µM | 28.8 µM | > 100 µM | > 100 µM | > 100 µM | > 100 µM | > 100 µM | > 100 µM | 10.8 µM | 5.14 µM | 10.2 µM | 14.4 µM | 24.4 µM | 4.07 µM | 13.7 µM | 19 µM | 21.3 µM | 4.49 µM |
| CCc1cccc(CC)c1NC(=S)NC(=O)c1ccc(Br)cc1 | > 100 µM | 53.9 µM | > 100 µM | > 71.6 µM | > 100 µM | > 31.6 µM | > 96 µM | > 100 µM | 66.3 µM | > 100 µM |  |  |  |  |  |  |  |  |  |  |
| C=C1C(=O)O[C@H]2[C@H]1CC/C(COC(=O)C(=O)c1c[nH]c3ccc(OC)cc13)=C\CC[C@@]1(C)O[C@@H]21 | 6.35 µM | 16 µM | 3.42 µM | 8.72 µM | 35.1 µM | 23 µM | 23.3 µM | 14.2 µM | 29 µM | 8.73 µM | 2.65 µM | 5.31 µM | 1.87 µM | 5.48 µM | 19.8 µM | 2.47 µM | 9.23 µM | 7.82 µM | 3.29 µM | 4.48 µM |
| COc1c2ccccc2c(O)c2c(=O)c(C(=O)O)cn(C)c12 | > 100 µM | > 100 µM | > 100 µM | > 100 µM | > 100 µM | > 100 µM |  | > 100 µM | > 100 µM | > 100 µM | > 100 µM | > 100 µM | > 100 µM | > 100 µM | > 100 µM | > 100 µM |  | > 100 µM | > 100 µM | > 100 µM |
| C#CCN1CCN(C(=S)N/N=C(\C)c2ccccn2)CC1 | 3.74 µM and 8.33 µM | 2.28 µM | 1.4 µM and 1.2 µM | 5.05 µM and 2.86 µM | 2.91 µM and 5.09 µM | 2.14 µM | 12.8 µM | 4.6 µM and 6.33 µM | 2.36 µM | 1.22 µM | 0.0028 µM | 0.136 µM | 0.00448 µM |  | 1.57 µM |  | 0.785 µM | 0.4 µM |  |  |
| Cc1ccc(S(=O)(=O)N2CCC3(C(/C=C/c4ccccc4)=Nc4ccccc43)C2c2ccccc2)cc1 (stereo not drawn) | > 100 µM |  | > 100 µM | > 100 µM | > 100 µM | > 100 µM | > 100 µM | > 100 µM | > 100 µM | > 100 µM |  |  |  |  |  |  |  |  |  |  |
| Nc1ccn([C@H]2C[C@@H](O)[C@@H](CO)S2)c(=O)n1 | > 100 µM | > 100 µM | > 100 µM | > 100 µM | > 100 µM |  | > 100 µM | > 100 µM | > 100 µM | > 100 µM | > 100 µM | > 100 µM | > 100 µM | > 42.3 µM | > 100 µM |  | 8.4 µM | > 100 µM | > 100 µM | 14.1 µM |
| CN(C)c1ccc(/C=C2\CNC/C(=C\c3ccc(N(C)C)cc3)C2=O)cc1 | 24.1 µM | > 100 µM | > 100 µM | > 100 µM | > 100 µM | > 100 µM |  |  | 82.8 µM | 35.1 µM |  |  |  |  |  |  |  |  |  |  |
| Cc1ccc(S(=O)(=O)Oc2ccc3c4c(c(=O)oc3c2)CCCCC4)cc1 | > 100 µM | > 100 µM |  | > 100 µM | > 100 µM | > 100 µM | > 100 µM | > 100 µM | > 100 µM | > 100 µM | 4.06 µM | 6.16 µM |  | 2.75 µM | > 100 µM | 5.18 µM | > 100 µM | 7.16 µM | 3.3 µM | 6 µM |
| COc1ccc(NC(=O)C(=O)NNC(=O)c2sc(NNC(C)=O)nc2C)c([N+](=O)[O-])c1 | > 100 µM | 85.1 µM | > 100 µM | > 100 µM | > 100 µM | 61.7 µM |  | > 100 µM | > 100 µM | > 100 µM |  |  |  |  |  |  |  |  |  |  |
| Cc1ccc(N=C2CSc3nnc(-c4csc5c4CCCC5)n3N2)cc1 | > 50 µM | > 50 µM | 7.75 µM | > 50 µM | > 50 µM | > 50 µM |  | > 50 µM | > 50 µM | > 50 µM | 0.175 µM | 0.213 µM | 0.162 µM | 0.175 µM | 0.271 µM | 0.158 µM |  | 0.226 µM | 0.179 µM | 0.225 µM |
| CC1CCCC(C(O)CC2CC(=O)N(c3ccccc3)C(=O)C2)C1=O (stereo not drawn) | > 100 µM | > 100 µM | > 100 µM |  | > 100 µM | > 100 µM | > 100 µM | > 100 µM | > 100 µM | > 100 µM |  |  |  |  |  |  |  |  |  |  |
| O=C(Nc1cnn2ccc(N3CCC[C@@H]3c3cc(F)ccc3F)nc12)N1CC[C@H](O)C1 | > 100 µM | > 100 µM | > 100 µM | > 100 µM | > 100 µM |  | > 100 µM | > 100 µM | > 100 µM | > 100 µM | > 100 µM | > 100 µM | > 100 µM | > 100 µM | > 100 µM |  | > 100 µM | 0.0122 µM | > 100 µM | > 100 µM |
| COC(=O)[C@]12CC[C@@H](C)[C@H](C)[C@@H]1C1=CC[C@@H]3[C@@]4(C)C(C=O)=C[C@@](C)(COC(C)=O)[C@@H]4[C@H](O)C[C@@]3(C)[C@]1(C)CC2 | 3.97 µM | 5.02 µM | 3.34 µM | 3.19 µM | 16.1 µM | 7.01 µM | 12.3 µM | 6.93 µM | 5.4 µM |  | 1.92 µM | 1.34 µM | 1.82 µM | 1.66 µM | 4.35 µM | 1.98 µM | 2.72 µM | 2.35 µM | 1.84 µM |  |
| C/C=C(\C)C(=O)O[C@@H]1C(O)[C@H]2OC(COC(=O)CCC(=O)CCCCCC[C@H](CCCCC)O[C@@H]3OC(C)[C@H](OC(C)=O)C(O)[C@H]3O2)[C@H]1OC(=O)/C=C/c1ccccc1 (stereo partly drawn) | 0.652 µM | > 100 µM | 13.7 µM |  | 13.3 µM | > 100 µM |  | > 100 µM | 3.18 µM | > 33.6 µM | < 0.01 µM | 3.28 µM | 0.0284 µM | < 0.01 µM | 0.0419 µM | 0.408 µM |  | < 0.0138 µM | < 0.012 µM | < 0.01 µM |
| COc1cc2c3c(n(CCN)c(=O)c2cc1OC)-c1cc2c(cc1C3=O)OCO2 |  | > 100 µM |  | 0.0975 µM | > 100 µM |  | 0.786 µM | 1.51 µM | > 100 µM |  |  | 0.084 µM |  | < 0.01 µM | 2.57 µM | < 0.01 µM | < 0.0145 µM | 0.235 µM | 1.56 µM | 0.0521 µM |
| CCc1cccc(C(C)C)c1NC(=O)C(=O)C(C(=O)C(=O)OC)c1nc2ccccc2[nH]c1=O (stereo not drawn) | > 100 µM | > 100 µM |  | > 100 µM | > 100 µM | > 100 µM | > 100 µM | > 100 µM | > 100 µM | > 100 µM |  |  |  |  |  |  |  |  |  |  |
